These results are taken from patent US20070155803A1, “Protease inhibitors” (ProZymex A/S, priority 2003, published 2007).

The target in one assay is T1, Human cathepsin G (Homo sapiens, UniProt P08311).
T1 construct: purchased Calbiochem 219373
T1 sequence (P08311 21-244): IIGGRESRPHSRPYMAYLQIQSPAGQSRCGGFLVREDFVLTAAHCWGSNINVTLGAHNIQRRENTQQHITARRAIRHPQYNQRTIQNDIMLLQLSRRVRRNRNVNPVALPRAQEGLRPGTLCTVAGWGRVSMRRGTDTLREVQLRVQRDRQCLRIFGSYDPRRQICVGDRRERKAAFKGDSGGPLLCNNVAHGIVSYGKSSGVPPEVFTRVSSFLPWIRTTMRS
Nature of the assay: Human cathepsin G assay. Type of assay: biochemical. The method, then: Using this assay, the selectivity of a compound of the invention for hDPP-I over human cathepsin G was determined, using a chromogenic substrate.
Buffer containing 100 mM Tris/HCl pH 8.3 (25° C.), 500 mM NaCl, and 20 mM CaCl2 prepared. DTNB (5,5′-dithio-bis(2-nitrobenzoic acid)) was added just prior to experiment (10 μL 1.25 mM/well).
Human cathepsin G (Calbiochem Cat # 219373, 50 ng/μL 0.1 mU/μL stock) was reconstituted in 50 mM sodium acetate and 150 mM NaCl (pH 5.5), and stored at −20° C. Diluted to 2 ng/μL in buffer just prior to experiment.
Suc-Ala-Ala-Pro-Phel-SBzl (Bachem Cat # 4009924.0050) diluted to 1 mM in buffer from 10 mM stock in buffer. Km determined to 100-200 μM.
The assay was performed in 96-well plates. 60 μL assay buffer was added to the well followed by 10 μL DTNB (1.25 mM), and 10 μL of a compound of the invention (100 μM, diluted with assay buffer to give 10 μM in the assay). Then 10 μL (2 ng/μL) enzyme was added, and 10 min. later (at 37° C.) 10 μL substrate (100 μM final concentration) was added. The absorption was measured at 410 nm for 10 minutes at 37° C. Each measurement was made in duplicate. In the software (SOFTmax Pro) used for data collection from the UV-spectrometer it was ensured that the measured slopes were linear (R^2>0.99). […]

The target of another assay is T2, Human liver cathepsin L (Homo sapiens, UniProt P07711).
T2 construct: Human liver cathepsin L (Enzyme System Products, Catl-1); purchased Enzyme System Products Catl-1; host or cells: human liver
T2 sequence (P07711 114-333): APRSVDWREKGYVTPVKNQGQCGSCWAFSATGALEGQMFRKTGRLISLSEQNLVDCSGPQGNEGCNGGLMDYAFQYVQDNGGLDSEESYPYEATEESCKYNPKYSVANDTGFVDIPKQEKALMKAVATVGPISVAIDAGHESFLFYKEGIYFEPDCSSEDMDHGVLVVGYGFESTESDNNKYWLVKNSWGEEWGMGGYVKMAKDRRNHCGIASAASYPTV
Nature of the assay: Human liver cathepsin L assay. Format: biochemical. The method, then:
Human Liver Catheosin L Assay
Using this assay, the selectivity of a compound of the invention for hDPP-I over human cathepsin L was determined, using a fluorogenic substrate.
Human liver cathepsin L (Enzyme System Products, Catl-1; 5 μL of a 1.61 μU/IμL stock) was solubilized in 2500 μL enzyme buffer. Prior to running experiment, 1 μL 0.5 M DTT/100 μL enzyme Solution was added. inoubated for 5 minutes on ice then added to reaction mixture.
Z-Phe-ARG-AFC*TFA (Enzyme System Products AF052; 15.6 mg) was dissolved in 1 mL DMSO, giving a 20 mM solution.
The assay was performed in 96-well plates. 50 μL assay buffer was added to the well followed by 25 μL reference inhibitor (cystatin, stock 1 mg/mL, diluted with assay buffer to give 25 nM in assay) or a compound of the invention (diluted with assay buffer to give 10 μM in the assay). Then 25 μL (80 nU) enzyme was added, and 1 min. later (at 37° C.) 100 μL substrate (10 μM in the assay) was added. The excitation wavelength was 400 nm, and the emission was measured at 505 nm for 10-20 minutes at 37° C. Each measurement was made in duplicate. In the software (SOFTmax Pro) used for data collection from the fluorometer (Molecular Devices: Gemini XS), it was ensured that the measured slopes were linear (R^2>0.99). Data were exported to GraphPad Prism and nonlinear regression was performed using the option Sigmoidal dose-response (variable slope).

In the next assay the test system is β-tryptase. Description: Tryptase assay. Format: biochemical, human. The method, then:
Using this assay, the selectivity of a compound of the invention for hDPP-I over β-tryptase was determined, using a fluorogenic substrate.
0.1 M HEPES buffer (pH 7.5) with 0.5 M NaCl.
Rh-Skin β-tryptase (Promega # G7061) was diluted to a final stock solution of 0.08 μg/μL in assay buffer.
Rh-lung β-tryptase (Promega # G5631) was diluted to a final stock solution of 0.08 μg/μL in assay buffer.
Z-ARG-AMC*HCl (BACHEM I1130; 10 mg) was dissolved in 1 mL DMSO, giving a 20 mM solution. Km was determined to be >400 μM.
The assay was performed in 96-well plates. 85 μl assay buffer was added to the well followed by 5 μL enzyme stock. Then 5 μL substrate was added, and subsequently 5 μL 4% DMSO in assay buffer (control) or a compound of the invention (10 μM in the assay) The excitation wavelength was 380 nm, and the emission was measured at 460 nm for 10-20 minutes at […] Each measurement was mad in duplicate. In the software (SOFTmax Pro) used for data collection from the fluorometer (Molecular Devices: Gemini XS), it was ensured that the measured slopes were linear (R^2>0.99).
Data were exported to GraphPad Prism and nonlinear regression was performed using the option Sigmoidal dose-response (variable slope).

Square brackets hold non-standard residues; d marks the D form. Peptide text beside a SMILES is read from it. Phe(3-F) = N[C@@H](Cc1cccc(F)c1)C(=O)O; hPhe = N[C@@H](CCc1ccccc1)C(=O)O; Abu = CC[C@H](N)C(=O)O; azaGly = NNC(=O)O A value given as a limit tells only on which side of the number the result lay.

In the case of `CC[C@H](N)C(=O)NNC(=O)N[C@@H](CCc1ccccc1)C(=O)N[C@@H](Cc1cccc(F)c1)C(N)=O` [Example 11, 1-(2S-2-Aminobutanoyl)-4-[2S-N-[2S-3-(m-fluorophenyl)propan-2-yl-amide]-4-phenylbutan-2-yl-amide]semicarbazide] (H-[Abu][azaGly][hPhe][Phe(3-F)]-NH2), the “Inhibition of Cathepsin G (in words)” value at Human cathepsin G was “does not inhibit”. For the same compound, the half-inhibitory concentration (IC50) (in general, the concentration at which inhibition is half-maximal) at Human cathepsin G (human cathepsin G, 10 μM cutoff, read-out: Secondary enzymatic screening (10 μM cutoff or IC50) Cathepsin G) is > 10 µM; on Human liver cathepsin L (human liver cathepsin L, 10 μM cutoff, read-out: Secondary enzymatic screening (10 μM cutoff or IC50) Cathepsin L) it was > 10 µM; at β-tryptase (β-tryptase, 10 μM cutoff, read-out: Secondary enzymatic screening (10 μM cutoff or IC50) Tryptase) it was > 10 µM. In addition, the “Inhibition of Cathepsin L (in words)” value on Human liver cathepsin L was “does not inhibit”. Also, the “Inhibition of tryptase (in words)” value with β-tryptase is “does not inhibit”.
